# From ChEMBL document CHEMBL4507280 (2021)
# Active and inactive are the calls of the source. No cut-off for these calls is given here.
# Assays:
# Fatty acid synthase [1] = molecular target: T1, Fatty acid synthase (Homo sapiens, UniProt P49327); assay: Inhibition of [14C]acetate incorporation into human H1975 cells; format: cell-based, NCI-H1975
# [2] = molecular target: Adenosine receptor A1 (Homo sapiens) (UniProt P30542); assay: A1/HU Eurofins-Panlabs selectivity data (BI); conditions: Compound concentration 10.0 uM
# [3] = molecular target: Adenosine receptor A2a (Homo sapiens) (UniProt P29274); assay: A2A/HU Eurofins-Panlabs selectivity data (BI); conditions: Compound concentration 10.0 uM
# [4] = molecular target: Beta-2 adrenergic receptor (Homo sapiens) (UniProt P07550); assay: BETA2/HU Eurofins-Panlabs selectivity data (BI); conditions: Compound concentration 10.0 uM
# [5] = molecular target: Prostaglandin E2 receptor EP4 subtype (Homo sapiens) (UniProt P35408); assay: EP4/H Eurofins-Panlabs selectivity data (BI); conditions: Compound concentration 10.0 uM
# [6] = molecular target: Gamma-aminobutyric acid receptor subunit alpha-1 (Rattus norvegicus) (UniProt P62813); assay: GABAA MUSCIMOL CENT Eurofins-Panlabs selectivity data (BI); conditions: Compound concentration 10.0 uM
# [7] = molecular target: Gamma-aminobutyric acid receptor subunit alpha-1 (Rattus norvegicus) (UniProt P62813); assay: GABAACENTR Eurofins-Panlabs selectivity data (BI); conditions: Compound concentration 10.0 uM
# [8] = molecular target: Histamine H1 receptor (Homo sapiens) (UniProt P35367); assay: H1/H Eurofins-Panlabs selectivity data (BI); conditions: Compound concentration 10.0 uM
# [9] = molecular target: hERG (KCNH2) potassium channel (Homo sapiens, UniProt Q12809); assay: K+/HERG Eurofins-Panlabs selectivity data (BI); conditions: compound concentration 10 uM, read-out: % Ctrl
# [10] = molecular target: ATP-sensitive inward rectifier potassium channel 1 isoform X1 (Mesocricetus auratus) (UniProt A0A1U8CU73); assay: K+/KATP/HA Eurofins-Panlabs selectivity data (BI); conditions: Compound concentration 10.0 uM
# [11] = molecular target: Acetylcholine receptor subunit alpha (Homo sapiens) (UniProt P02708); assay: NACH/H Eurofins-Panlabs selectivity data (BI); conditions: Compound concentration 10.0 uM
# [12] = molecular target: Nicotinic acetylcholine receptor alpha-1/beta-1 (Homo sapiens) (UniProt P02708+P11230); assay: NACH_BS_N/H Eurofins-Panlabs selectivity data (BI); format: protein-complex assay; conditions: Compound concentration 10.0 uM
# [13] = molecular target: Sodium-dependent noradrenaline transporter (Homo sapiens) (UniProt P23975); assay: NETRANS/H Eurofins-Panlabs selectivity data (BI); conditions: Compound concentration 10.0 uM
# [14] = system: Tyrosine-protein kinase ABL1 (Homo sapiens), P00519 [E255K]; conditions: Compound concentration 1000.0 nM
# [15] = molecular target: Activin receptor type-2A (Homo sapiens) (UniProt P27037); conditions: Compound concentration 1000.0 nM
# [16] = molecular target: RAC-gamma serine/threonine-protein kinase (Homo sapiens) (UniProt Q9Y243); conditions: Compound concentration 1000.0 nM
# [17] = molecular target: 5'-AMP-activated protein kinase catalytic subunit alpha-2 (Homo sapiens) (UniProt P54646); conditions: Compound concentration 1000.0 nM
# [18] = molecular target: Citron Rho-interacting kinase (Homo sapiens) (UniProt O14578); conditions: Compound concentration 1000.0 nM
# [19] = molecular target: Receptor tyrosine-protein kinase erbB-4 (Homo sapiens) (UniProt Q15303); conditions: Compound concentration 1000.0 nM
# [20] = molecular target: Serine/threonine-protein kinase STK11 (Homo sapiens) (UniProt Q15831); conditions: Compound concentration 1000.0 nM
# [21] = molecular target: Leukocyte tyrosine kinase receptor (Homo sapiens) (UniProt P29376); conditions: Compound concentration 1000.0 nM
# [22] = molecular target: Hepatocyte growth factor receptor (Homo sapiens) (UniProt P08581); conditions: Compound concentration 1000.0 nM
# [23] = molecular target: Serine/threonine-protein kinase 3 (Homo sapiens) (UniProt Q13188); conditions: Compound concentration 1000.0 nM
# [24] = molecular target: Serine/threonine-protein kinase pim-2 (Homo sapiens) (UniProt Q9P1W9); conditions: Compound concentration 1000.0 nM
# [25] = molecular target: Protein kinase C epsilon type (Homo sapiens) (UniProt Q02156); conditions: Compound concentration 1000.0 nM
# [26] = molecular target: Interferon-induced, double-stranded RNA-activated protein kinase (Homo sapiens) (UniProt P19525); conditions: Compound concentration 1000.0 nM
# [27] = molecular target: RAF proto-oncogene serine/threonine-protein kinase (Homo sapiens) (UniProt P04049); conditions: Compound concentration 1000.0 nM
# [28] = molecular target: Dual serine/threonine and tyrosine protein kinase (Homo sapiens) (UniProt Q6XUX3); conditions: Compound concentration 1000.0 nM
# [29] = molecular target: Rho-associated protein kinase 1 (Homo sapiens) (UniProt Q13464); conditions: Compound concentration 1000.0 nM
# [30] = molecular target: Ribosomal protein S6 kinase alpha-3 (Homo sapiens) (UniProt P51812); conditions: Compound concentration 1000.0 nM
# [31] = molecular target: TGF-beta receptor type-2 (Homo sapiens) (UniProt P37173); conditions: Compound concentration 1000.0 nM
# [32] = molecular target: Transient receptor potential cation channel subfamily M member 6 (Homo sapiens) (UniProt Q9BX84); conditions: Compound concentration 1000.0 nM
# [33] = molecular target: Vascular endothelial growth factor receptor 2 (Homo sapiens) (UniProt P35968); conditions: Compound concentration 1000.0 nM
# [34] = molecular target: Histamine H2 receptor (Homo sapiens) (UniProt P25021); conditions: Compound concentration 10.0 uM
# [35] = molecular target: Muscarinic acetylcholine receptor M1 (Homo sapiens) (UniProt P11229); conditions: Compound concentration 10.0 uM
# Fatty acid synthase [36] = molecular target: T1, Fatty acid synthase; assay: Human FAS enzyme assay
# [37] = system: Tyrosine-protein kinase ABL1 (Homo sapiens), P00519 [Y253F]; conditions: Compound concentration 1000.0 nM
# [38] = molecular target: Peripheral plasma membrane protein CASK (Homo sapiens) (UniProt O14936); conditions: Compound concentration 1000.0 nM
# [39] = molecular target: Dual specificity mitogen-activated protein kinase kinase 2 (Homo sapiens) (UniProt P36507); conditions: Compound concentration 1000.0 nM
# [40] = molecular target: NUAK family SNF1-like kinase 2 (Homo sapiens) (UniProt Q9H093); conditions: Compound concentration 1000.0 nM
# [41] = molecular target: Delta-type opioid receptor (Homo sapiens) (UniProt P41143); conditions: Compound concentration 10.0 uM
# [42] = molecular target: Alpha-2A adrenergic receptor (Homo sapiens) (UniProt P08913); conditions: Compound concentration 10.0 uM
# Chain of Protein kinase C epsilon type (Homo sapiens) (Q02156 whole entry): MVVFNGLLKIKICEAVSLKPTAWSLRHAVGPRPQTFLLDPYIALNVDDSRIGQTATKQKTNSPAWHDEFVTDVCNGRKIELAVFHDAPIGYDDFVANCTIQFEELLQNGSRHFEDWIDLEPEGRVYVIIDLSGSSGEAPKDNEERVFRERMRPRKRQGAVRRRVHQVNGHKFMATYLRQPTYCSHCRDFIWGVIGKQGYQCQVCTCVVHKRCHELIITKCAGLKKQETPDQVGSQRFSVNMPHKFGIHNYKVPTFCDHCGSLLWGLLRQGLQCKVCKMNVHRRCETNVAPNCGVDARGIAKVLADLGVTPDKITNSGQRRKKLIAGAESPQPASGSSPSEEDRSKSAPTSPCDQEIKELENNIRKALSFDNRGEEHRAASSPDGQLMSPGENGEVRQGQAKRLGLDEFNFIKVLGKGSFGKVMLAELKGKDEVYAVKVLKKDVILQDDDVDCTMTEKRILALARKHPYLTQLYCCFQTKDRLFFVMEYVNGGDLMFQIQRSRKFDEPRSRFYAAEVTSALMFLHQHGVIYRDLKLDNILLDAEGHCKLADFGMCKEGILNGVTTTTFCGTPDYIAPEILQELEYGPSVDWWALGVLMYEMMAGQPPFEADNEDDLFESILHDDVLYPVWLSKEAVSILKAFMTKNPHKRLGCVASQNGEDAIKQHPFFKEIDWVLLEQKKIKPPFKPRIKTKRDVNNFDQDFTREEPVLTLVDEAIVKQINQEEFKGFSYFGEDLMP
# Chain of TGF-beta receptor type-2 (Homo sapiens) (P37173 whole entry): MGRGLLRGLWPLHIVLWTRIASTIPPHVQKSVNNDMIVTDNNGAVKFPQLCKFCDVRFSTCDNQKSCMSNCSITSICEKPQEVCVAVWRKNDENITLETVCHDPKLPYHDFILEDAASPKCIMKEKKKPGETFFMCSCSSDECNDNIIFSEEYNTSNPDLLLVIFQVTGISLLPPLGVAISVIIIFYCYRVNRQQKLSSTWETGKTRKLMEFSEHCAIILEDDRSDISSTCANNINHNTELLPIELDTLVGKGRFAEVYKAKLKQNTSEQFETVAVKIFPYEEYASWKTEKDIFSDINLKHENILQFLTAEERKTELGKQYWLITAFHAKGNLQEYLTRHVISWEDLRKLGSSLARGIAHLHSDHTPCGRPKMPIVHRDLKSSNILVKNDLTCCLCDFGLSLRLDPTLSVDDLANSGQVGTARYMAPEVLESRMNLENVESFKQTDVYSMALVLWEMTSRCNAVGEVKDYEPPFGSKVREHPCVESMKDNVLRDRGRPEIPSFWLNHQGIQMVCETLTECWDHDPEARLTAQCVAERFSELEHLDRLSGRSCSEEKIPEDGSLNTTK
# Chain of Gamma-aminobutyric acid receptor subunit alpha-1 (Rattus norvegicus) (P62813 whole entry): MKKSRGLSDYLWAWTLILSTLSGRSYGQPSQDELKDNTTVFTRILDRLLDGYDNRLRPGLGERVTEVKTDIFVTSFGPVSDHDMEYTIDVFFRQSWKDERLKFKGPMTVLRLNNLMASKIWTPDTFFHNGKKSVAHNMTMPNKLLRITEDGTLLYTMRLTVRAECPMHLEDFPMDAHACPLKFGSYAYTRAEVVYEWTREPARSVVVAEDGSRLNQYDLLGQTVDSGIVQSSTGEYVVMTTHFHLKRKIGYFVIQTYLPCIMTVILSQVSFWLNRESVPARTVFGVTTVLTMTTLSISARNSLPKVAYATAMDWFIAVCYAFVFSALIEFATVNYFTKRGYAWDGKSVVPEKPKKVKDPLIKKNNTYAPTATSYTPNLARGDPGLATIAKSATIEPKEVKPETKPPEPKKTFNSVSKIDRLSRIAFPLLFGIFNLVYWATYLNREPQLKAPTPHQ
# Chain of Citron Rho-interacting kinase (Homo sapiens) (O14578 whole entry): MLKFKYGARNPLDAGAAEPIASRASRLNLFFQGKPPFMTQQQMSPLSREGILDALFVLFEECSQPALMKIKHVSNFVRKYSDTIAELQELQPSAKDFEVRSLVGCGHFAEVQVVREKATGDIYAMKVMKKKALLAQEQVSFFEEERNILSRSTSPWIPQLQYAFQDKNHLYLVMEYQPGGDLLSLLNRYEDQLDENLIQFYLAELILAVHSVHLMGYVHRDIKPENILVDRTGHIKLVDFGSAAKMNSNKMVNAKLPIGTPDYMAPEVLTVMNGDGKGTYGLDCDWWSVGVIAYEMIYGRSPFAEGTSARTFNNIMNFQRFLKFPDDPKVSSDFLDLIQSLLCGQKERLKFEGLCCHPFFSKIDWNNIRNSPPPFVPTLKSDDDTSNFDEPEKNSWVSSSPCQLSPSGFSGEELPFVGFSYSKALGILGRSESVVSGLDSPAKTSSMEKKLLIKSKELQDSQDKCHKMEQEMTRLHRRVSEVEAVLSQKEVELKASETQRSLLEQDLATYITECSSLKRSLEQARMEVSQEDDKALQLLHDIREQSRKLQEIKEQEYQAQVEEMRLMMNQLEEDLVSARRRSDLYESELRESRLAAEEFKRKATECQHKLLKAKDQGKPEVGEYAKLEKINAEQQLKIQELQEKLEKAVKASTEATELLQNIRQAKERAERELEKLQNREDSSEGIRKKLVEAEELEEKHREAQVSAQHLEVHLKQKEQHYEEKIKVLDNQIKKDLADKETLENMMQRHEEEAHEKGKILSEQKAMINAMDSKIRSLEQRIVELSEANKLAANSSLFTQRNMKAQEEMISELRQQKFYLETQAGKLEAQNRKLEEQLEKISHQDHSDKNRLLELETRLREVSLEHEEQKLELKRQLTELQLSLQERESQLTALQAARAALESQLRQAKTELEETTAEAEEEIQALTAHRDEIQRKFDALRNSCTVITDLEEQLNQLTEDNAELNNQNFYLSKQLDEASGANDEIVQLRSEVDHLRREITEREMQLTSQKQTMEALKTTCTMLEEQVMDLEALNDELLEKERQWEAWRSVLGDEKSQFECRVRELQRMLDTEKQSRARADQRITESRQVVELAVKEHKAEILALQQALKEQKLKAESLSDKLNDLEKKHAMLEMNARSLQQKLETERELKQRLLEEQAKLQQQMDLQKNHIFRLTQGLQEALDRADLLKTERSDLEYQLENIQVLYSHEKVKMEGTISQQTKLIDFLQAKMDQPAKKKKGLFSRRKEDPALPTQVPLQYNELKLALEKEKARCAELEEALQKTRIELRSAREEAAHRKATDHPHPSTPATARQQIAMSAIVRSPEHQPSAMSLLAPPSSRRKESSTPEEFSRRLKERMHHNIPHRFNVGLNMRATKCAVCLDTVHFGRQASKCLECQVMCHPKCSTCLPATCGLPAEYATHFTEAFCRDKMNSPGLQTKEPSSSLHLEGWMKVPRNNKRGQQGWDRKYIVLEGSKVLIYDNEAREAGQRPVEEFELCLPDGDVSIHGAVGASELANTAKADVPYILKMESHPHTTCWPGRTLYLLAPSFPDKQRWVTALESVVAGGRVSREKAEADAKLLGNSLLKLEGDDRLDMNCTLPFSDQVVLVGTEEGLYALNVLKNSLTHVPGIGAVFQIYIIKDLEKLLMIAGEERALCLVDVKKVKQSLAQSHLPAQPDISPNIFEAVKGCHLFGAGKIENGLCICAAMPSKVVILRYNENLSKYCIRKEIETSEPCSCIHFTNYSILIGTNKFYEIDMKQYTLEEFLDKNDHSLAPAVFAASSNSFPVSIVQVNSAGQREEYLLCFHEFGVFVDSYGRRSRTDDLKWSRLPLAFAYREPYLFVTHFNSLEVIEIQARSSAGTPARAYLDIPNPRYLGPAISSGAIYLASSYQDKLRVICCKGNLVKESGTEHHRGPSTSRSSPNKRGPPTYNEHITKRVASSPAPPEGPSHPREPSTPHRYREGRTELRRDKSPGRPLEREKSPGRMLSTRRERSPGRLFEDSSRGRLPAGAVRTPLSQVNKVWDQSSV
# Chain of Ribosomal protein S6 kinase alpha-3 (Homo sapiens) (P51812 whole entry): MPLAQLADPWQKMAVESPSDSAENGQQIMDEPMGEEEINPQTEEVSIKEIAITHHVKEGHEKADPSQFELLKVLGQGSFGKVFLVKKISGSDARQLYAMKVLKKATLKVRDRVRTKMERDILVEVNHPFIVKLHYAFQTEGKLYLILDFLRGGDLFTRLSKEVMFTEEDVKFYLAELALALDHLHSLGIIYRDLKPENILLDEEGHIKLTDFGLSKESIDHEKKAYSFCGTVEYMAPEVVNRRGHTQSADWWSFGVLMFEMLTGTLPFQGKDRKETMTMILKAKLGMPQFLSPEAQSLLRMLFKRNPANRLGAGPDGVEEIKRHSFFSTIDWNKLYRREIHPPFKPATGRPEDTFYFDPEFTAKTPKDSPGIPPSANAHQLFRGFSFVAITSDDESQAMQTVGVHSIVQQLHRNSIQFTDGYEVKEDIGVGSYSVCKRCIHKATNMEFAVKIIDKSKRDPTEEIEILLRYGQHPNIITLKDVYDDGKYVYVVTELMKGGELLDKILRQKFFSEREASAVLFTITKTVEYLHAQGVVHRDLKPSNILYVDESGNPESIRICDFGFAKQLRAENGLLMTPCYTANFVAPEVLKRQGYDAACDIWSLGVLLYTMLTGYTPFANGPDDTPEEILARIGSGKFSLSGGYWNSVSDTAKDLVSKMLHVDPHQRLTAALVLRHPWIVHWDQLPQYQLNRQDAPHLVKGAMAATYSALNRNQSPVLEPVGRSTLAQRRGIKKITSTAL
# Chain of Serine/threonine-protein kinase pim-2 (Homo sapiens) (Q9P1W9 whole entry, looked up): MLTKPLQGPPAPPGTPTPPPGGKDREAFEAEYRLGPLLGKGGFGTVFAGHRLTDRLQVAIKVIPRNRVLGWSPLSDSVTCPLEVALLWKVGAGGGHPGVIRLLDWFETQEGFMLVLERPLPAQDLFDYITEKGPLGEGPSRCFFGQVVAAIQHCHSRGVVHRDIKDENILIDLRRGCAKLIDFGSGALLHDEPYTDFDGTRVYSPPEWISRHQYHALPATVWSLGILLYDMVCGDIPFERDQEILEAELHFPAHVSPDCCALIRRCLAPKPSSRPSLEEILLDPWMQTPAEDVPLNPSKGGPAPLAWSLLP
SMILES,residual activity [14],residual activity [15],residual activity [16],residual activity [17],residual activity [18],residual activity [19],residual activity [20],residual activity [21],residual activity [22],residual activity [23],residual activity [24],residual activity [25],residual activity [26],residual activity [27],residual activity [28],residual activity [29],residual activity [30],residual activity [31],residual activity [32],residual activity [33],also measured
CCC(=O)N[C@H]1CC[C@@H](C(=O)N(C)c2ccc(-c3nc4ccccc4o3)cc2)C1 [BI 99179],75%,98%,100%,88%,99%,100%,100%,100%,100%,100%,100%,90%,100%,100%,87%,100%,87%,89%,76%,75%,IC50 (Fatty acid synthase [1]): 0.18 µM (active); residual activity [2]: 107%; residual activity [3]: 90%; residual activity [4]: 100%; residual activity [5]: 91%; residual activity [6]: 96%; residual activity [7]: 92%; residual activity [8]: 87%; activity at 10 µM [9]: 105% (not active); residual activity [10]: 88%; residual activity [11]: 113%; residual activity [12]: 91%; residual activity [13]: 91%; inhibition [34]: -1.25%; inhibition [35]: 3.53%
CCC(=O)N[C@@H]1CC[C@H](C(=O)N(C)c2ccc(-c3nc4ccccc4o3)cc2)C1 [BI 99990],100%,100%,100%,74%,93%,100%,51%,93%,100%,100%,100%,93%,100%,94%,93%,100%,91%,100%,84%,77%,IC50 (Fatty acid synthase [36]): > 3 µM (not active); residual activity [37]: 95%; residual activity [38]: 83%; residual activity [39]: 100%; residual activity [40]: 100%; inhibition [41]: -0.0188%; inhibition [42]: 11.2%
